Measurements: patent US10946024B2, “Method for treating cancer” (Epizyme, Inc., priority 2014, dated 2021)
Entries after “also recorded” stand apart in the source; their conditions may differ.

How the values were obtained:
[1] = Plasma concentrations in HS-SY-II xenograft model (LC/MS/MS); assay type: in vivo, mice; conditions: oral twice daily for 7 days; 5 minutes before and 3 hours after the last dose
Experimental: HS-SY-II cells were harvested during mid-log phase growth, and resuspended in Hank balanced salt solution with 50% Matrigel (BD Biosciences). Balb/C-nu mice (Charles River Laboratories Japan) received 1×10^7 cells (0.1 mL cell suspension) subcutaneously in the right flank. Mice carrying tumors of approximately 200 mm^3 (31 days after injection) were sorted into treatment groups with similar mean tumor volumes. Compound A or vehicle (0.5% MC+0.1% Tween-80 in water) was administered at the indicated doses on twice a day for 7 days by oral gavage. Each dose was delivered in a volume of 0.2 mL/20 g mouse (10 mL/kg), and adjusted for the last recorded weight of individual animals. Peripheral blood samples were collected at approximately 5 minutes before and 3 hours after the last dose from Compound A-treated mice. After obtaining plasma samples by centrifugation, the analysis for plasma concentrations of Compound A was conducted by the liquid chromatography-tandem mass spectrometry (LC/MS/MS) method. The UPLC system (Acquity, Waters) equipped with a mass spectrometer (Quattro premier, MICROMASS) was used for quantification of Compound A. The concentrations are plotted (n=5) in FIG. 7A. Each bar represents a mean of plasma concentration in each group.

HS-SY-II cells = assay: Adherent cell line long-term (14-day) proliferation assay, CellTiter-Glo; assay type: cell-based, human; conditions: 14-day long-term proliferation assay
Experimental: (§1) 96-well plating for 7 day assay: For each adherent cell line, plated cells in a volume of 100 μL in 96-well plates, to be treated in triplicate, either in the evening (to treat with compound the following day) or in morning (to treat with compound in the evening), to allow cells to attach to plates before compound treatment.
(§2) 6-well plates to be split for 7-14 day assay: Plated 2 mL of cells at the correct density in each well of the 6-well plate. Calculated the correct density from the 96-well plate growth curve by multiplying the 96-well density by 30. The factor 30 came from growth area of the 6-well plate divided by the growth area of the 96-well plate (9.5 cm^2/0.32 cm^2=29.7, rounded up to 30), which corresponds to 30-fold more surface area in a 6-well vs. a 96-well plate.
(§3) Day 0: Treated with compound or DMSO by removing media and adding back either 100 μL (for 96-well plate) or 2 mL (for 6-well plate) media with the correct dilutions of compound/DMSO. Table 1 includes an example of 96-well plate map. Plates were incubated for 96 hours.
(§4) Read one 96-well plate with CellTiter-Glo® for a Day 0 reading (media change not necessary for this plate).
(§5) Day 4: Read one 96-well plate with CellTiter-Glo® for a Day 4 reading (media change not necessary for this plate before reading). Replaced media with fresh media containing compound on Day 4 in 96-well plates and 6-well plates.
(§6) Day 7: read final 96-well plate with CellTiter-Glo®.
(§7) Counted individual wells of 6-well plates, and replated cells to initial plating density in 96-well plates, as described above.
(§8) Repeated steps for Days 0-7 for Days 7-14 of the proliferation assay.
(§9) Particularly, approximately 12 hours before compound treatment, HS-SY-II or SW982 cells were plated at the density of 24,000 cells/well and 7,500 cells/well, respectively in 6-well plates. On day 0, cells were treated with either DMSO or compound starting at 10 μmol/L and decreasing in fourfold dilutions. On day 7, the cells in 6-well plates were trypsinized, counted by TC10 automated cell counter (Bio-Rad, Richmond, Calif.) and replated at the density of 800 cells/well and 250 cells/well for HS-SY-II and SW982, respectively in 96-well plates in triplicate. The cells were allowed to adhere to the plate overnight, and treated with either DMSO or compound as on Day 0. On days 0, 7, 11, and 14, cell viability was determined by CellTiter-Glo® Luminescent Cell Viability Assay (Promega) with EnVision 2103 Multilabel Reader (Perkin-Elmer, Wellesley, Mass.). Compound/media was changed with new one on Day 4 and 11. The ratios of the measured values on Days 7, 11, and 14 to that of day 7 were used to plot proliferation from day 7 to day 14, and to calculate the IC50 values on Day 14. […]

SW982 cells = assay: as above; assay type: cell-based, human; conditions: SW982, 14-day long-term proliferation assay
Experimental: as §1, §2, §3, §4, §5, §6, §7, §8, §9

[2] = test system: CDKN2A expression in HS-SY-II xenograft; assay: Gene expression changes in vivo in HS-SY-II xenograft by RT-PCR; parameters: species or system mice; conditions: 500 mg/kg oral twice daily for 7 days
Experimental: Tumor samples were collected at approximately 3 hours after the last dose from mice used in analysis for PK values and PD alterations.

[3] = test system: ATF3, EGR1 expression in SW982 cells; assay: Gene expression changes in vitro by RT-PCR, normalized to GAPDH; assay type: cell-based, human; conditions: SW982 in vitro culture
Experimental: (§10) HS-SY-II and SW982 cells were treated with EZH2 inhibitors (Compound A or EPZ-011989) and collected at the indicated time points. Total RNA isolation and cDNA synthesis were performed using the TaqMan Gene Expression Cells-to-CT kit (4399002, Life technologies) according to the manufacturer's protocol. ATF3, EGR1, CDKN2A and GAPDH expression were analyzed by using the TaqMan Gene Expression Assays (Life technologies, 4331182) and the TaqMan Probes (Hs00231069_m1, Hs00152928_m1, Hs00233365_m1, and Hs99999905_m1, respectively).

[4] = test system: HLA genes, Fas, KLRD1 expression in synovial sarcoma PDX tumors; conditions: 400 mg/kg BID, PDX tumors harvested on day 35
Experimental: Tumor samples were collected at approximately 3 hours after the last dose from mice used in analysis for PK values and PD alterations. The tumor samples were stored using RNAlater (AM7020, Life technologies). Total RNA isolation and the reverse transcription were performed by RNeasy Mini Kit (74104, Qiagen) and High capacity cDNA Reverse Transcription kit (4368814, Life technologies) according to the manufacturer's instruction. The cDNA samples were used for real time-PCR as described above. The expression levels were adjusted to GAPDH and expressed as fold changes to vehicle control (FIG. 9). Additionally or alternatively, total RNAs were isolated from frozen tumor samples. The TruSeq™ RNA Sample Prep Kit (Illumina) was used to build cDNA library for paired-end sequencing on the Illumina HiSeq (details described in Illumina TruSeq RNA Sample Preparation Guide). […] Paired-end reads from ˜50M clusters per sample were generated using TruSeq SBS kit on the Illumina HiSeq.
Raw sequencing reads in FASTQ format was aligned to human genome hg19 as well as mouse genome mm10. Transcriptomic quantification was carried out with the RSEM v1.1.13 program, using USCS KnownGene transcriptome as reference. […]
The patient-derived xenograft (PDX) models CTG-0331 and CTG-0771 are low passage Champions TumorGraft™ models representing human synovial sarcoma. […] Tumor size was measured twice weekly. […]

[5] = test system: ATF3, EGR1, CDKN2A expression in HS-SY-II cells; assay: Gene expression changes in vitro by RT-PCR, normalized to GAPDH; assay type: cell-based, human; parameters: key to ATF3 expression change, significance 0 uM vs. / EGR1 expression change, significance 0 uM vs. / CDKN2A expression change, significance 0 uM vs.: *: Asterisks mean significant changes compared to levels of 0 μM-treated groups.; **: Asterisks mean significant changes compared to levels of 0 μM-treated groups.; ***: Asterisks mean significant changes compared to levels of 0 μM-treated groups.; ****: Asterisks mean significant changes compared to levels of 0 μM-treated groups
Experimental: as §10

- plasma concentrations [1]: Dose dependent exposure
SMILES: CCN(c1cc(-c2ccc(CN3CCOCC3)cc2)cc(C(=O)NCc2c(C)cc(C)[nH]c2=O)c1C)C1CCOCC1 [Compound A]
- sensitivity of cell proliferation (HS-SY-II cells): highly sensitive; also recorded: high sensitivity
- sensitivity of cell proliferation (SW982 cells): are not; also recorded: did not; also recorded: not sensitive
- CDKN2A expression in tumor [2]: significantly upregulated
- ATF3 and EGR1 expression [3]: not in SW982
- expression of HLA genes, Fas, and KLRD1 relative to vehicle [4]: increased
- ATF3 and EGR1 expression ([5]; HS-SY-II in vitro culture): upregulated
- CDKN2A expression ([5]; HS-SY-II in vitro culture): Dose- and time-dependent CDKN2A upregulation
- CDKN2A expression change, significance 0 uM vs. ([5]; HS-SY-II, 1 uM, day 2): **
- ATF3 expression change, significance 0 uM vs. ([5]; HS-SY-II, 1 uM, day 4): *
- CDKN2A expression change, significance 0 uM vs. ([5]; HS-SY-II, 1 uM, day 4): ****
- ATF3 expression change, significance 0 uM vs. ([5]; HS-SY-II, 1 uM, day 7): **
- CDKN2A expression change, significance 0 uM vs. ([5]; HS-SY-II, 1 uM, day 7): ****
- EGR1 expression change, significance 0 uM vs. ([5]; HS-SY-II, 1 uM, day 7): **
